Where “and” joins values, the source holds several entries; their conditions need not be identical. Equal values may be shown once.
Assays:
Type in all cases: cell-based, human
[1] = system: PBMC from allergic donors; assay: IFN-γ ELISPOT with extract-stimulated short-term lines; settings: positive donor/peptide response
Protocol: (§1) Spots were counted by computer-assisted image analysis (Zeiss, KS-ELISPOT reader, Munich, Germany).
(§2) Each assay was performed in triplicate. The level of statistical significance was determined with a Student's t-test using the mean of triplicate values of the response against relevant pools or individual peptides versus the response against the DMSO control.

[2] = system: PBMC from allergic donors; assay: Dual ELISPOT, total IL-5 and IFN-γ response (SFC); settings: sum of IFNg and IL-5
Protocol: as §1, §2

[3] = system: PBMC from allergic donors; assay: IL-5 ELISPOT with extract-stimulated short-term lines; settings: positive donor/peptide response
Protocol: as §1, §2

Row | Molecule | Response (SFC/10^6) IFNg ([1]; one donor per table line) | Response (SFC/10^6) Total ([2]; one donor per table line) | Response (SFC/10^6) IL-5 ([3]; one donor per table line) | also measured
1 | 3324.0100 (MLTLFILIITSTIKA) | – | – | – | Response (SFC/10^6) IFNg ([1]; each table line is one donor): 63 SFC/10^6 and 167 SFC/10^6; Response (SFC/10^6) Total ([2]; each table line is one donor): 63 SFC/10^6 and 167 SFC/10^6
2 | 3324.0103 (IAKVPPGPNITATYG) | 153 SFC/10^6 and 223 SFC/10^6 and 267 SFC/10^6 | 153 SFC/10^6 and 223 SFC/10^6 and 267 SFC/10^6 | – | –
3 | 3324.0372 (PAKNIYSFNEIVALW) | 67 SFC/10^6 | 67 SFC/10^6 | – | –
4 | 3324.0379 (TNFEIEASFGVEASE) | 1113 SFC/10^6 | 1113 SFC/10^6 | – | –
5 | 3324.0380 (VILAINHSVFVKGDH) | 1410 SFC/10^6 | 1410 SFC/10^6 | – | –
6 | 3324.0384 (VKAFKQVDVVISTVG) | 1007 SFC/10^6 | 1007 SFC/10^6 | – | –
7 | 3324.0630 (LVATSAISLHMQEAG) | 83 SFC/10^6 | 83 SFC/10^6 | – | –
8 | 3324.0633 (MLAVVAVVLASMVGG) | 227 SFC/10^6 | 227 SFC/10^6 | – | –
9 | 3324.0639 (TVWAQSAAFPAFKPE) | 463 SFC/10^6 and 100 SFC/10^6 | 463 SFC/10^6 and 100 SFC/10^6 | – | –
10 | 3324.0652 (LRTLGSTSADEVQRM) | 113 SFC/10^6 | 113 SFC/10^6 | – | –
11 | 3324.0894 (NGKLHLSLIDPSTLS) | 460 SFC/10^6 | 460 SFC/10^6 | – | –
12 | 3324.0914 (FAFGYFNGRILGVCP) | 133 SFC/10^6 | 133 SFC/10^6 | – | –
13 | 3324.0918 (NAMDEIIKSTDAEPA) | 260 SFC/10^6 | 260 SFC/10^6 | – | –
14 | 3324.0922 (TGLPLMYKFGDNLVV) | 247 SFC/10^6 | 247 SFC/10^6 | – | –
15 | 3324.1133 (MASSSSVLLVVALFA) | 53 SFC/10^6 | 53 SFC/10^6 | – | –
16 | 3324.1145 (LRKYGIAAENVIDVK) | – | – | – | Response (SFC/10^6) IFNg ([1]; each table line is one donor): 50 SFC/10^6; Response (SFC/10^6) Total ([2]; each table line is one donor): 50 SFC/10^6
17 | 3324.1151 (NEMSWIESIPFVHLG) | – | – | – | Response (SFC/10^6) IFNg ([1]; each table line is one donor): 1933 SFC/10^6; Response (SFC/10^6) Total ([2]; each table line is one donor): 1933 SFC/10^6

Row | Molecule | Response (SFC/10^6) IFNg ([1]; one donor per table line) | Response (SFC/10^6) Total ([2]; one donor per table line) | Response (SFC/10^6) IL-5 ([3]; one donor per table line) | also measured
18 | 3324.1152 (FPHRKGVLFNIQYVN) | – | – | – | Response (SFC/10^6) IFNg ([1]; each table line is one donor): 100 SFC/10^6; Response (SFC/10^6) Total ([2]; each table line is one donor): 100 SFC/10^6
19 | 3324.1159 (PENFAVVDLNQMRAV) | – | – | – | Response (SFC/10^6) IFNg ([1]; each table line is one donor): 75 SFC/10^6; Response (SFC/10^6) Total ([2]; each table line is one donor): 75 SFC/10^6
20 | 3324.1640 (VTAFGFDLVRGTKTL) | – | – | – | Response (SFC/10^6) Total ([2]; each table line is one donor): 73 SFC/10^6; Response (SFC/10^6) IL-5 ([3]; each table line is one donor): 73 SFC/10^6
21 | CC[C@H](C)[C@H](NC(=O)[C@H](Cc1ccc(O)cc1)NC(=O)[C@H](CC(C)C)NC(=O)[C@@H]1CCCN1C(=O)[C@H](CCSC)NC(=O)[C@H](CC(N)=O)NC(=O)[C@H](CC(C)C)NC(=O)[C@H](CCCCN)NC(=O)[C@@H](NC(=O)[C@H](CC(N)=O)NC(=O)[C@H](CC(C)C)NC(=O)[C@@H](N)CC(N)=O)[C@@H](C)CC)C(=O)N[C@@H](C)C(=O)NCC(=O)N[C@@H](CC(N)=O)C(=O)O [3324.0523] | – | 1708 SFC/10^6 | 1708 SFC/10^6 | –
22 | CC[C@H](C)[C@H](NC(=O)[C@H](CC(N)=O)NC(=O)[C@H](CCSC)NC(=O)[C@@H](N)CC(N)=O)C(=O)N[C@@H](CCCCN)C(=O)N[C@@H](CC(C)C)C(=O)N[C@@H](CCCCN)C(=O)N[C@@H](CCSC)C(=O)N1CCC[C@H]1C(=O)N[C@@H](CC(C)C)C(=O)N[C@@H](Cc1ccc(O)cc1)C(=O)N[C@H](C(=O)N[C@@H](C)C(=O)NCC(=O)N[C@@H](Cc1c[nH]cn1)C(=O)O)C(C)C [3324.0624] | – | 3147 SFC/10^6 | 3147 SFC/10^6 | –
23 | CC[C@H](C)[C@H](NC(=O)[C@H](CO)NC(=O)[C@H](CC(C)C)NC(=O)[C@H](C)NC(=O)[C@H](CC(C)C)NC(=O)[C@H](CC(N)=O)NC(=O)[C@H](CCCCN)NC(=O)[C@H](CCC(=O)O)NC(=O)[C@H](CC(=O)O)NC(=O)[C@H](CO)NC(=O)CN)C(=O)N[C@@H](CCCCN)C(=O)N[C@@H](Cc1ccc(O)cc1)C(=O)N[C@@H](CC(N)=O)C(=O)N[C@@H](CCCCN)C(=O)O [3324.0657] | – | 1000 SFC/10^6 and 693 SFC/10^6 | 1000 SFC/10^6 and 693 SFC/10^6 | –
24 | CC[C@H](C)[C@H](NC(=O)[C@H](CO)NC(=O)[C@H](CC(C)C)NC(=O)[C@H](C)NC(=O)[C@H](CC(C)C)NC(=O)[C@@H](N)CC(N)=O)C(=O)N[C@@H](CCCCN)C(=O)N[C@@H](Cc1ccc(O)cc1)C(=O)N[C@@H](CC(N)=O)C(=O)N[C@@H](CCCCN)C(=O)N[C@@H](CCC(=O)O)C(=O)NCC(=O)N[C@@H](CC(=O)O)C(=O)N[C@@H](CO)C(=O)N[C@@H](CCSC)C(=O)O [3324.0658] | – | 917 SFC/10^6 and 853 SFC/10^6 | 917 SFC/10^6 and 853 SFC/10^6 | –
25 | CC[C@H](C)[C@H](NC(=O)[C@H](Cc1c[nH]cn1)NC(=O)[C@H](Cc1ccc(O)cc1)NC(=O)[C@H](C)NC(=O)[C@@H](NC(=O)[C@H](Cc1ccccc1)NC(=O)[C@H](C)NC(=O)[C@H](CC(=O)O)NC(=O)[C@@H](N)Cc1ccccc1)C(C)C)C(=O)NCC(=O)N[C@@H](C)C(=O)N[C@@H](CCCNC(=N)N)C(=O)N[C@H](C(=O)N[C@H](C(=O)N[C@@H](CO)C(=O)O)C(C)C)[C@@H](C)CC [3324.0971] | – | 187 SFC/10^6 | 187 SFC/10^6 | –
26 | CC[C@H](C)[C@H](NC(=O)[C@H](C)NC(=O)[C@@H](NC(=O)[C@H](Cc1ccccc1)NC(=O)[C@H](C)NC(=O)[C@H](CCCNC(=N)N)NC(=O)[C@H](CC(N)=O)NC(=O)CNC(=O)[C@H](CCCNC(=N)N)NC(=O)[C@@H](N)CO)[C@@H](C)CC)C(=O)N[C@@H](CC(N)=O)C(=O)N[C@@H](CC(C)C)C(=O)N[C@@H](CCC(N)=O)C(=O)N[C@@H](CCCCN)C(=O)N[C@@H](CC(N)=O)C(=O)O [3324.0974] | – | 940 SFC/10^6 | 940 SFC/10^6 | –
27 | CC[C@H](C)[C@H](NC(=O)[C@H](Cc1c[nH]cn1)NC(=O)[C@H](Cc1ccc(O)cc1)NC(=O)[C@H](C)NC(=O)[C@@H](NC(=O)[C@H](Cc1ccccc1)NC(=O)[C@H](C)NC(=O)[C@H](CC(=O)O)NC(=O)[C@H](Cc1ccccc1)NC(=O)[C@H](CCC(=O)O)NC(=O)[C@H](CC(=O)O)NC(=O)[C@H](Cc1c[nH]cn1)NC(=O)CNC(=O)[C@@H](NC(=O)[C@@H](N)Cc1ccc(O)cc1)C(C)C)C(C)C)C(=O)O [3324.0975] | – | 973 SFC/10^6 | 973 SFC/10^6 | –
28 | CC[C@H](C)[C@H](N)C(=O)N[C@@H](CCC(=O)O)C(=O)N[C@@H](Cc1ccccc1)C(=O)N[C@@H](CCCNC(=N)N)C(=O)N[C@@H](Cc1ccccc1)C(=O)N[C@@H](Cc1ccc(O)cc1)C(=O)N[C@@H](CCCCN)C(=O)N[C@@H](CCC(=O)O)C(=O)N[C@H](C(=O)N[C@H](C(=O)N[C@@H](CC(N)=O)C(=O)N[C@H](C(=O)N[C@@H](Cc1ccccc1)C(=O)N[C@@H](CCCNC(=N)N)C(=O)NCC(=O)O)C(C)C)[C@@H](C)O)[C@@H](C)CC [3324.0976] | – | 153 SFC/10^6 and 610 SFC/10^6 | 153 SFC/10^6 and 610 SFC/10^6 | –
29 | CSCC[C@H](NC(=O)[C@H](Cc1ccccc1)NC(=O)[C@H](C)N)C(=O)N[C@@H](CC(C)C)C(=O)N[C@@H](C)C(=O)N[C@@H](Cc1c[nH]c2ccccc12)C(=O)N[C@@H](CC(N)=O)C(=O)N[C@@H](Cc1ccc(O)cc1)C(=O)NCC(=O)N[C@H](C(=O)N1CCC[C@H]1C(=O)N[C@@H](CCCNC(=N)N)C(=O)N[C@H](C(=O)N[C@@H](CCSC)C(=O)N[C@@H](CO)C(=O)O)C(C)C)C(C)C [3324.0977] | – | 1413 SFC/10^6 and 157 SFC/10^6 | 1413 SFC/10^6 and 157 SFC/10^6 | –
30 | CC[C@H](C)[C@H](NC(=O)[C@H](C)NC(=O)[C@@H](NC(=O)[C@H](Cc1ccccc1)NC(=O)[C@H](C)NC(=O)[C@H](CCCNC(=N)N)NC(=O)[C@H](CC(N)=O)NC(=O)CNC(=O)[C@H](CCCNC(=N)N)NC(=O)[C@H](CO)NC(=O)[C@H](Cc1ccccc1)NC(=O)[C@H](C)NC(=O)[C@@H](NC(=O)[C@H](CCC(N)=O)NC(=O)[C@@H](N)Cc1ccc(O)cc1)[C@@H](C)CC)[C@@H](C)CC)C(=O)O [3324.0980] | – | 177 SFC/10^6 and 380 SFC/10^6 | 177 SFC/10^6 and 380 SFC/10^6 | –
31 | CC[C@H](C)[C@H](N)C(=O)N[C@H](C(=O)N[C@@H](CC(C)C)C(=O)N[C@@H](CC(N)=O)C(=O)N[C@@H](Cc1c[nH]cn1)C(=O)N[C@@H](CCSC)C(=O)N[C@H](C(=O)NCC(=O)N[C@@H](C)C(=O)N[C@@H](CCC(N)=O)C(=O)N[C@@H](CO)C(=O)NCC(=O)N[C@@H](CCCCN)C(=O)NCC(=O)N[C@H](C(=O)O)[C@@H](C)O)[C@@H](C)O)C(C)C [3324.0987] | – | 507 SFC/10^6 | 507 SFC/10^6 | –
32 | CC[C@H](C)[C@H](N)C(=O)N[C@@H](CCCCN)C(=O)N[C@@H](CO)C(=O)N[C@@H](CC(=O)O)C(=O)N[C@@H](CCCCN)C(=O)N1CCC[C@H]1C(=O)N[C@@H](CC(C)C)C(=O)N[C@@H](CCCCN)C(=O)NCC(=O)N1CCC[C@H]1C(=O)N[C@@H](Cc1ccccc1)C(=O)N[C@@H](CC(N)=O)C(=O)N[C@@H](Cc1ccccc1)C(=O)N[C@@H](CCCNC(=N)N)C(=O)N[C@@H](Cc1ccccc1)C(=O)O [3324.1140] | – | – | – | Response (SFC/10^6) Total ([2]; each table line is one donor): 317 SFC/10^6; Response (SFC/10^6) IL-5 ([3]; each table line is one donor): 317 SFC/10^6
33 | CC[C@H](C)[C@H](NC(=O)[C@H](Cc1ccccc1)NC(=O)[C@H](CCCCN)NC(=O)[C@H](Cc1ccc(O)cc1)NC(=O)[C@H](CO)NC(=O)[C@@H](N)CC(=O)O)C(=O)N1CCC[C@H]1C(=O)N[C@H](C(=O)N[C@@H](CC(C)C)C(=O)N[C@H](C(=O)N[C@@H](C)C(=O)N[C@@H](C)C(=O)N[C@H](C(=O)N[C@@H](CCCCN)C(=O)N[C@@H](CCC(N)=O)C(=O)O)C(C)C)C(C)C)[C@@H](C)O [3324.1165] | – | – | – | Response (SFC/10^6) Total ([2]; each table line is one donor): 382 SFC/10^6 and 78 SFC/10^6; Response (SFC/10^6) IL-5 ([3]; each table line is one donor): 382 SFC/10^6 and 78 SFC/10^6
